Laboratory results taken from US20250263753A1, “BRIDGED CYCLE-BASED INHIBITORS OF DNA-DEPENDENT PROTEIN KINASE AND COMPOSITIONS AND APPLICATION IN GENE EDITING” (Juno Therapeutics, Inc., priority 2023, published 2025).
Read-outs that look alike come from different tables or passages of the source.

What was measured:
DNA-PK = DNA-PK (Homo sapiens (Human), UniProt P78527); assay: DNA-PK biochemical assay (Reaction Biology HotSpot kinase assay, 10 μM ATP)
Experimental: DNA-PK Biochemical Assay Using Reaction Biology's HotSpot Kinase Assay Protocol:
Reagent: Base Reaction buffer; 20 mM Hepes (pH 7.5), 10 mM MgCl2, 1 mM EGTA, 0.01% Brij35, 0.02 mg/ml BSA, 0.1 mM Na3VO4, 2 mM DTT, 1% DMSO Required cofactors are added individually to each kinase reaction.
Reaction Procedure: 1. Prepare substrate in freshly prepared Reaction Buffer; 2. Deliver any required cofactors to the substrate solution above; 3. Deliver kinase into the substrate solution and gently mix; 4. Deliver compounds in 100% DMSO into the kinase reaction mixture by Acoustic technology (Echo550; nanoliter range), incubate for 20 min at room temperature; 5. Deliver 33P-ATP into the reaction mixture to initiate the reaction; 6. Incubate for 2 hours at room temperature; 7. Detect kinase activity by P81 filter-binding method.

ATM = ATM (Homo sapiens (Human), UniProt Q13315); assay: ATM biochemical assay (Reaction Biology HTRF kinase assay, 10 μM ATP)
Experimental: Ataxia-Telangiectasia Mutated (ATM) Biochemical Assay Using Reaction Biology's HTRF Kinase Assay Protocol:
The assay detects kinase activity by antibody based HTRF assay. The GST-tagged p53 protein serves as substrate and Eu-labeled-antibody with specific phosphorylation site binds upon phosphorylation which is monitored by HTRF from the anti-GST-d2.
Reagent: Reaction buffer; 50 mM Hepes (pH 7.5), 150 mM NaCl, 10 mM MnCl2, 1% Glycerol, 0.01% Brij35, 1 mM DTT, 1% DMSO.
Substrate: Human p53 (aa2-393), RBC produced in E. coli, N-terminal GST-Tag, MW=70.42 kDa.
Detection; MAb Anti-p53-pS15-Eu cryptate, CisBio cat #61P08KAZ; MAb Anti GST-d2
Reaction Procedure: 1. Deliver 2× Enzyme in wells of reaction plate except No E control wells. Add buffer instead; 2. Deliver compounds in 100% DMSO into the kinase reaction mixture by Acoustic technology (Echo550; nanoliter range), incubate for 30 min at room temperature; 3. Deliver 2× substrate+ATP mixture into the reaction mixture to initiate the reaction; 4. Incubate for 2 hours at room temperature.
HTRF Detection: 1. Deliver 2× Stop/Detection mixture and incubate for 2 hours to overnight in the dark. 2. HTRF measurement (Ex/Em1/Em2=320/615/665 nm) in EnVision.

[1] = target: PI3Kδ (His-PIK3CD/PIK3R1, p110 delta/p85 alpha) (Homo sapiens (Human), UniProt O00329); assay: PI3Kδ biochemical assay (HTRF/FRET probe); format: binding; conditions: class symbol
Experimental: Phosphoinositide 3-kinase (PI3K) Biochemical Assay: A solution was prepared containing 0.2 nM Anti-HIS-Terbium (Cisbio, 64CUSTAZU), 40 nM designed-probe and 1.0 nM His-PIK3CD/PIK3R1 (p110 delta/p85 alpha) in FRET Buffer (20 mM HEPES, 10 mM MgCl2, 0.015% Brij-35, 4 mM DTT, 0.05 mg/mL BSA).

[2] = target: PI3Kα (His-PIK3CA/PIK3R1, p110 alpha/p85 alpha) (Homo sapiens (Human), UniProt P42336); assay: PI3Kα biochemical assay (HTRF/FRET probe); format: binding; conditions: class symbol
Experimental: Phosphoinositide 3-kinase α (PI3Kα) Biochemical Assay: A solution was prepared containing 0.2 nM Anti-HIS-Terbium (Cisbio, 64CUSTAZU), 3.7 nM designed-probe and 1.0 nM His-PIK3CA/PIK3R1 (p110 alpha/p85 alpha) in FRET Buffer (20 mM HEPES, 10 mM MgCl2, 0.015% Brij-35, 4 mM DTT, 0.05 mg/mL BSA).

[3] = read-out: ATM HTRF 10 μM ATP IC50, class symbol
[4] = read-out: DNA-PK HotSpot 10 μM ATP IC50, class symbol

PI3Kα (His-PIK3CA/PIK3R1, p110 alpha/p85 alpha), sequence (P42336 whole entry, species assumed): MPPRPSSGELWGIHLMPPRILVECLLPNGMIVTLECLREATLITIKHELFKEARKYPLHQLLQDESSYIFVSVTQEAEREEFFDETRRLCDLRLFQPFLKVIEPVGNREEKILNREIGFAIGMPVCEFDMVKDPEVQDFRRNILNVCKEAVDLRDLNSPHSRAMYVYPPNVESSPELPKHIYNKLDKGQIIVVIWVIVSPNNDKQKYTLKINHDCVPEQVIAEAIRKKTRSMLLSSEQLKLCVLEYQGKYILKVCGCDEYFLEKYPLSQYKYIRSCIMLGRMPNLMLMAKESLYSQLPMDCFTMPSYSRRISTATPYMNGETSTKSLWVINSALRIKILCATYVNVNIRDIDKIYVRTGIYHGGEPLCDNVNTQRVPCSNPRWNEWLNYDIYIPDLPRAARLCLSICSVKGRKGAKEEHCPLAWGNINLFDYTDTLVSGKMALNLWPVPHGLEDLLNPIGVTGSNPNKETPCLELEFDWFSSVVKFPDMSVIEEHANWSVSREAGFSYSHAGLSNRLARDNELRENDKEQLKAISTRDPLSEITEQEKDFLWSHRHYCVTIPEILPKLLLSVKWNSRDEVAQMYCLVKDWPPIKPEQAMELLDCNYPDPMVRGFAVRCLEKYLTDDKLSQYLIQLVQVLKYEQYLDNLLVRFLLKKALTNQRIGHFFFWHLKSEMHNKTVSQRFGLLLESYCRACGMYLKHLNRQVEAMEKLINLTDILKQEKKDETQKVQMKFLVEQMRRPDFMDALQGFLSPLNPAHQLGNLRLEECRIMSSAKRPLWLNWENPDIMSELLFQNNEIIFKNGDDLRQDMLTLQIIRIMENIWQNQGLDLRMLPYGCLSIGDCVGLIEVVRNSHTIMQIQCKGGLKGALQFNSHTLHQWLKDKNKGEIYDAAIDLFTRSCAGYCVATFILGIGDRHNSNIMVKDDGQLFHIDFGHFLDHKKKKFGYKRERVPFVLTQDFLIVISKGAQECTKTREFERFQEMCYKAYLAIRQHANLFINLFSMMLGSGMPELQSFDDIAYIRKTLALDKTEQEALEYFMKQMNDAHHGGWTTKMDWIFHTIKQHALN
PI3Kα (His-PIK3CA/PIK3R1, p110 alpha/p85 alpha), sequence (P27986 whole entry partner, species assumed): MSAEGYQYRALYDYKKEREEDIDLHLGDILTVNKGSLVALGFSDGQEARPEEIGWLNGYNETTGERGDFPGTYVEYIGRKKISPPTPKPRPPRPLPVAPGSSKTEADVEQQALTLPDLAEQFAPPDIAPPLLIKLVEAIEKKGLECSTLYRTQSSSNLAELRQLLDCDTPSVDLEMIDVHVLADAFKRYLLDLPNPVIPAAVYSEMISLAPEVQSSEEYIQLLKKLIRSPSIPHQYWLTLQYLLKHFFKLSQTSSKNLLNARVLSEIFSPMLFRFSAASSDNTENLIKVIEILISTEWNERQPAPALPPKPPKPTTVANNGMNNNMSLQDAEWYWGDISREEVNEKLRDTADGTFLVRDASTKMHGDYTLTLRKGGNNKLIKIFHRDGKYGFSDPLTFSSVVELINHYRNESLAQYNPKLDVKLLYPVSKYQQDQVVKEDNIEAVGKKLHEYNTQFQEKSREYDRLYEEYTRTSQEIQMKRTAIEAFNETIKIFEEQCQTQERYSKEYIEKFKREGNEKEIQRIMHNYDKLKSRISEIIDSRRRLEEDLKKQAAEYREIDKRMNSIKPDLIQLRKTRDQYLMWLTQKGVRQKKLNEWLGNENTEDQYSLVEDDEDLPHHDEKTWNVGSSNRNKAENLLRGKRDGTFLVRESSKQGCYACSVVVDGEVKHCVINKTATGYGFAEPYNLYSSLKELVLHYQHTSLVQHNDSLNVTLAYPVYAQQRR
PI3Kδ (His-PIK3CD/PIK3R1, p110 delta/p85 alpha), sequence (O00329 whole entry, species assumed): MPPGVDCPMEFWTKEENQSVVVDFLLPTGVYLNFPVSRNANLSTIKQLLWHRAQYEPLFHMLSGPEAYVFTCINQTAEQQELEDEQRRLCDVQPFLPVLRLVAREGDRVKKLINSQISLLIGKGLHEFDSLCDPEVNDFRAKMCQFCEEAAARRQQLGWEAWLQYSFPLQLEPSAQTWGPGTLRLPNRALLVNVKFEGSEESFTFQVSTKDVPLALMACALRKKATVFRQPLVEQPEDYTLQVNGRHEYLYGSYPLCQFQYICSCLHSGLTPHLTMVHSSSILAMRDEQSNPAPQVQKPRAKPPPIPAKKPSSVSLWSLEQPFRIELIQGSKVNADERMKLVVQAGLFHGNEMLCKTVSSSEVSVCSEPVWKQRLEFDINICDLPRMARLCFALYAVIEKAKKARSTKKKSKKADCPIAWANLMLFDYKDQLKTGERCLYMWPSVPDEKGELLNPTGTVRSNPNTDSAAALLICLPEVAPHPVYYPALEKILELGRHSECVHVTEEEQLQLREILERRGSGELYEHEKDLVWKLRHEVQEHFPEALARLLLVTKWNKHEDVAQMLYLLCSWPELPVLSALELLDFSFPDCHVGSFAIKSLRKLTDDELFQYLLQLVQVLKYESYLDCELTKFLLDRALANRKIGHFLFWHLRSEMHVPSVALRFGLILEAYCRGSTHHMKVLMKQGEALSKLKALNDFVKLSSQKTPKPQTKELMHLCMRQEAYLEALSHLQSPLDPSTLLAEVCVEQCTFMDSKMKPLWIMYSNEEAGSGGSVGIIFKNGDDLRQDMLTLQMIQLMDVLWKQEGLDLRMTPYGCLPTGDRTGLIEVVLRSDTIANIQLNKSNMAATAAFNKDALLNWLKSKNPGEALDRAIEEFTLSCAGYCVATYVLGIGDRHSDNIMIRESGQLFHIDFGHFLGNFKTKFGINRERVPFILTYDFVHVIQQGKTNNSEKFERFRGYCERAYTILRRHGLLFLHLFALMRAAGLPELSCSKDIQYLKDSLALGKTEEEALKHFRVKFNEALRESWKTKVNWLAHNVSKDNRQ
PI3Kδ (His-PIK3CD/PIK3R1, p110 delta/p85 alpha), sequence (P27986 whole entry partner, species assumed): as the sequence (P27986 whole entry partner, species assumed) above

Row | SMILES | IC50 (DNA-PK; class symbol) | IC50 (ATM; class symbol) | IC50 [1] | IC50 [2] | IC50 (ATM; [3]) | IC50 (DNA-PK; [4])
1 | Cc1cc2c(cc1Nc1ncc3c(n1)n(C14CC(C#N)(C1)C4)c(=O)n3C)OCO2 [Compound 17, 3-(7-methyl-2-((6-methylbenzo[d][1,3]dioxol-5-yl)amino)-8-oxo-7,8-dihydro-9H-purin-9-yl) bicyclo[1.1.1]pentane-1-carbonitrile] | 1 to 10 nM | 100 to 1000 nM | ≥ 1000 nM | ≥ 1000 nM | – | –
2 | Cc1cc2ncnn2cc1Nc1ncc2c(n1)n(C13CC(C(F)(F)F)(C1)C3)c(=O)n2C [Compound 18, 7-methyl-2-((7-methyl-[1,2,4]triazolo[1,5-a]pyridin-6-yl)amino)-9-(3-(trifluoromethyl)bicyclo[1.1.1]pentan-1-yl)-7,9-dihydro-8H-purin-8-one] | 1 to 10 nM | 1 to 10 nM | ≥ 1000 nM | ≥ 1000 nM | – | –
3 | Cc1cc2c(cc1Nc1ncc3c(n1)n(C14CC(C(F)(F)F)(C1)C4)c(=O)n3C)OCO2 [Compound 19, 7-methyl-2-((6-methylbenzo[d][1,3]dioxol-5-yl)amino)-9-(3-(trifluoromethyl)bicyclo[1.1.1]pentan-1-yl)-7,9-dihydro-8H-purin-8-one] | 1 to 10 nM | 100 to 1000 nM | ≥ 1000 nM | ≥ 1000 nM | – | –
4 | COCC12CC(n3c(=O)n(C)c4cnc(Nc5cn6ncnc6cc5C)nc43)(C1)C2 [Compound 20, 9-(3-(methoxymethyl)bicyclo[1.1.1]pentan-1-yl)-7-methyl-2-((7-methyl-[1,2,4]triazolo[1,5-a]pyridin-6-yl)amino)-7,9-dihydro-8H-purin-8-one] | 1 to 10 nM | 1 to 10 nM | ≥ 1000 nM | 100 to 1000 nM | – | –
5 | COC12CCC(n3c(=O)n(C)c4cnc(Nc5cc6c(cc5C)OCO6)nc43)(C1)C2 [Compound 28, 9-(4-methoxybicyclo[2.1.1]hexan-1-yl)-7-methyl-2-((6-methylbenzo[d][1,3]dioxol-5-yl)amino)-7,9-dihydro-8H-purin-8-one] | 1 to 10 nM | – | ≥ 1000 nM | – | ≥ 1000 nM | –
6 | Cc1cc2c(cc1Nc1ncc3c(n1)n(C14CCC(O)(CC1)C4)c(=S)n3C)OCO2 [Compound 32, 9-(4-hydroxybicyclo[2.2.1]heptan-1-yl)-7-methyl-2-((6-methylbenzo[d][1,3]dioxol-5-yl)amino)-7,9-dihydro-8H-purine-8-thione] | 1 to 10 nM | – | – | ≥ 1000 nM | ≥ 1000 nM | –
7 | Cc1cc(-c2cnn(C)c2)c(F)cc1Nc1ncc2c(n1)n(C13CC(F)(C1)C3)c(=O)n2C [Compound 38, 2-((5-fluoro-2-methyl-4-(1-methyl-1H-pyrazol-4-yl)phenyl)amino)-9-(3-fluorobicyclo[1.1.1]pentan-1-yl)-7-methyl-7,9-dihydro-8H-purin-8-one] | 10 to 100 nM | 10 to 100 nM | ≥ 1000 nM | – | – | –
8 | Cc1cc2ncccc2cc1Nc1ncc2c(n1)N(C13CCC(O)(CC1)C3)CC(=O)N2C [Compound 53, 8-{4-Hydroxybicyclo[2.2.1]heptan-1-yl}-5-methyl-2-[(7-methylquinolin-6-yl)amino]-5,6,7,8-tetrahydropteridin-6-one] | – | 10 to 100 nM | 10 to 100 nM | – | – | < 1 nM
9 | Cc1cc2nsnc2cc1Nc1ncc2c(n1)N(C13CC(F)(C1)C3)CC(=O)N2C [Compound 58, 8-(3-fluorobicyclo[1.1.1]pentan-1-yl)-5-methyl-2-((6-methylbenzo[c][1,2,5]thiadiazol-5-yl)amino)-7,8-dihydropteridin-6(5H)-one] | – | 100 to 1000 nM | – | ≥ 1000 nM | – | < 1 nM
10 | Cc1cc2nsnc2cc1Nc1ncc2c(n1)N(C13CCC(O)(CC1)C3)C(=O)C21CC1 [Compound 69, 7′-(4-hydroxybicyclo[2.2.1]heptan-1-yl)-2′-((6-methylbenzo[c][1,2,5]thiadiazol-5-yl)amino)spiro[cyclopropane-1,5′-pyrrolo[2,3-d]pyrimidin]-6′(7′H)-one] | – | 10 to 100 nM | – | 10 to 100 nM | – | < 1 nM
